Results from patent US20260053834A1, “COVALENT MODIFIERS OF AKT1 AND USES THEREOF” (Terremoto Biosciences, Inc., priority 2023, published 2026).

Assays:
[1] = molecular target: T1, AKT1 WT (Homo sapiens, UniProt P31749); assay: Live cell target engagement by NanoBRET competitive probe displacement, AKT1 WT; type: binding; details: transfected HEK293 cells, 2 h at 37° C., read-out: AKT1 WT IC50: GeoMean IC50
T1 construct: expressed in transfected cells; host or cells: HEK293

[2] = molecular target: T2, AKT2 (Homo sapiens, UniProt P31751); assay: Live cell target engagement by NanoBRET competitive probe displacement, AKT2; type: binding; details: transfected HEK293 cells, 2 h at 37° C., read-out: AKT2 IC50: GeoMean IC50
T2 construct: expressed in transfected cells; host or cells: HEK293
T2 sequence (P31751 whole entry): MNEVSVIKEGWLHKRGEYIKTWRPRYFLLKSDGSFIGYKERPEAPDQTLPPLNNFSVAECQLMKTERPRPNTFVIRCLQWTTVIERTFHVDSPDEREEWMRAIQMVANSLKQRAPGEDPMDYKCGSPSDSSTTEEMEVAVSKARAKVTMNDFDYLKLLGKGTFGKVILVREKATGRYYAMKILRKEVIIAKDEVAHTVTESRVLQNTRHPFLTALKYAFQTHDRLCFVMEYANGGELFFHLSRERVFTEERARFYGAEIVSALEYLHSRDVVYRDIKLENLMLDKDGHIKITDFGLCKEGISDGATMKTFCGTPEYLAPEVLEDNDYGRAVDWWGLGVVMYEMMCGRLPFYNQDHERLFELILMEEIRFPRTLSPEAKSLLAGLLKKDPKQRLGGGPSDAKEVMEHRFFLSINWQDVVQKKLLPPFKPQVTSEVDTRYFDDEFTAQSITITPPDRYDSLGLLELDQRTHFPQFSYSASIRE

[3] = molecular target: T3, AKT1 E17K (Homo sapiens, UniProt P31749, E17K); assay: Live cell target engagement by NanoBRET competitive probe displacement, AKT1 E17K; type: binding; details: transfected HEK293 cells, 2 h at 37° C., read-out: AKT1 E17K IC50: GeoMean IC50
T3 construct: expressed in transfected cells; host or cells: HEK293
T3 sequence (P31749 whole entry E17K): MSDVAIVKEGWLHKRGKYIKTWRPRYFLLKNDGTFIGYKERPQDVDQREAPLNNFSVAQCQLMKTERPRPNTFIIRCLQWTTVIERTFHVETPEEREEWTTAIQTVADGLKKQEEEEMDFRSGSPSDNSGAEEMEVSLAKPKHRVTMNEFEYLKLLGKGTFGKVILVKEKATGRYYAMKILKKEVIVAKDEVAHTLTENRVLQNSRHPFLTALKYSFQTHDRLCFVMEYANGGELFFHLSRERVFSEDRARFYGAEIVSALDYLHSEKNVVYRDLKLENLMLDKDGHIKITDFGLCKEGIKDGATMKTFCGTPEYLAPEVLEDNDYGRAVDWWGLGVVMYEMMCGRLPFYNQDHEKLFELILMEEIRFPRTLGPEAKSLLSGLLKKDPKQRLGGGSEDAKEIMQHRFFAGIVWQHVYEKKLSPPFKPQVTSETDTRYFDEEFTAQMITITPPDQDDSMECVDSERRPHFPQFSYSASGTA

[4] = tested on: LAPC4 prostate cancer cells, which express the AKT1 E17K allele; assay: Antiproliferative effects in LAPC4 cells (CellTiter Glo, 72 h); type: cell-based; details: Homo sapiens, LAPC4, 72 h, read-out: LAPC4 proliferation IC50: GeoMean IC50
Method in brief: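 Cells grown in IMDM with 12% FBS, seeded at 1,000 cells/well and treated with compound dilutions in DMSO for 72 h. Intracellular ATP read by luminescence. IC50 from a log(inhibitor) vs. response Hill fit.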

T1 sequence (P31749 whole entry): as the sequence (P31749 whole entry E17K) above, with K17E counted along it

IC50 [1] | IC50 [2] | IC50 [3] | IC50 [4] | Structure (SMILES)
100 to 2000 nM | 100 to 2000 nM | 100 to 2000 nM | 100 to 2000 nM | COc1cc(O)c(C=O)cc1C(=O)N[C@H]1CCc2cc(-n3c(-c4cccnc4N)nc4ccc(-c5ccccc5)nc43)ccc21 [Example 17, N-[(1S)-5-[2-(2-aminopyridin-3-yl)-5-phenylimidazo[4,5-b]pyridin-3-yl]-2,3-dihydro-1H-inden-1-yl]-5-formyl-4-hydroxy-2-methoxybenzamide]
10 to 100 nM | 100 to 2000 nM | 10 to 100 nM | 100 to 2000 nM | Nc1ncccc1-c1nc2ccc(-c3ccccc3)nc2n1-c1ccc2c(c1)CC[C@@H]2NC(=O)c1cc(C=O)c(O)cc1Cl [Example 34, N-[(1S)-5-[2-(2-aminopyridin-3-yl)-5-phenylimidazo[4,5-b]pyridin-3-yl]-2,3-dihydro-1H-inden-1-yl]-2-chloro-5-formyl-4-hydroxybenzamide]
10 to 100 nM | 100 to 2000 nM | 10 to 100 nM | 100 to 2000 nM | Cc1noc(-c2ccc3nc(-c4cccnc4N)n(-c4ccc5c(c4)CC[C@@H]5NC(=O)c4ccc(O)c(C=O)c4)c3n2)n1 [Example 179, N-[(1S)-5-[2-(2-aminopyridin-3-yl)-5-(3-methyl-1,2,4-oxadiazol-5-yl)imidazo[4,5-b]pyridin-3-yl]-2,3-dihydro-1H-inden-1-yl]-3-formyl-4-hydroxybenzamide]
